According to article PMC12406652 (Antimicrobial Agents and Chemotherapy, 2025):

Key:
[1] = human, in vivo
[2] = in vivo
[3] = human, in vivo; for AUCinf, geometric LS mean, Reference / Cmax, geometric LS mean, Reference: 400 mg

| Structure (SMILES) | Change in geometric mean AUCtau from the first to the last dose [1] | Fe0-8 recovered in urine, of the last dose [2] | AUCinf, geometric LS mean, Test [3] | Cmax, geometric LS mean, Test [3] | AUCinf, geometric LS mean, Reference [3] | Cmax, geometric LS mean, Reference [3] |
| --- | --- | --- | --- | --- | --- | --- |
| Nc1nc(/C(=C/CC(=O)O)C(=O)N[C@@H]2C(=O)N3C(C(=O)O)=CCS[C@H]23)cs1 (relative stereo) [Cis-ceftibuten, cis-ceftibuten] | 44-52% | 50-68% | 79030 ng·h/mL | 15410 ng/mL | 90090 ng·h/mL | 17560 ng/mL |
| Nc1nc(/C(=C\CC(=O)O)C(=O)N[C@@H]2C(=O)N3C(C(=O)O)=CCS[C@H]23)cs1 (relative stereo) [Trans-ceftibuten, trans-ceftibuten] | 64-75% | 20-23% | 8946 ng·h/mL | 1319 ng/mL | 10400 ng·h/mL | 1552 ng/mL |
